Measured values: ChEMBL document CHEMBL3792365, “Dioxol and dihydrodioxin analogs of 2- and 3-phenylacetonitriles as potent anti-cancer agents with nanomolar activity against a variety of human cancer cells” (2016)

Experiments:
Format in all cases: functional
[1] = Growth inhibition of human SF539 cells at 10 uM after 48 hrs by sulforhodamine B assay; conditions: SF-539, 48 h, values are per cent of control
MDA-MB-468 = experiment: Growth inhibition of human MDA-MB-468 cells at 10 uM after 48 hrs by sulforhodamine B assay; conditions: MDA-MB-468, 48 h, values are per cent of control
T47D = experiment: Growth inhibition of human T47D cells at 10 uM after 48 hrs by sulforhodamine B assay; conditions: values are per cent of control
ACHN = experiment: Growth inhibition of human ACHN cells at 10 uM after 48 hrs by sulforhodamine B assay; conditions: values are per cent of control
M14 = experiment: Growth inhibition of human M14 cells at 10 uM after 48 hrs by sulforhodamine B assay; conditions: M14, 48 h, values are per cent of control
786-0 = experiment: Growth inhibition of human 786-0 cells at 10 uM after 48 hrs by sulforhodamine B assay; conditions: 786-0, 48 h, values are per cent of control
NCI-H460 = experiment: Growth inhibition of human NCI-H460 cells at 10 uM after 48 hrs by sulforhodamine B assay; conditions: NCI-H460, 48 h, values are per cent of control
[2] = Growth inhibition of human NCI-ADR-RES cells at 10 uM after 48 hrs by sulforhodamine B assay; conditions: values are per cent of control
[3] = Growth inhibition of human DU145 cells at 10 uM after 48 hrs by sulforhodamine B assay; conditions: DU-145, 48 h, values are per cent of control
[4] = Growth inhibition of human Caki1 cells at 10 uM after 48 hrs by sulforhodamine B assay; conditions: CAKI-1, 48 h, values are per cent of control
A549 = experiment: Growth inhibition of human A549/ATCC cells at 10 uM after 48 hrs by sulforhodamine B assay; conditions: A549, 48 h, values are per cent of control
MDA-MB-435 = experiment: Growth inhibition of human MDA-MB-435 cells at 10 uM after 48 hrs by sulforhodamine B assay; conditions: MDA-MB-435, 48 h, values are per cent of control
[5] = Growth inhibition of human SNB19 cells at 10 uM after 48 hrs by sulforhodamine B assay; conditions: SNB-19, 48 h, values are per cent of control
[6] = Growth inhibition of human SF268 cells at 10 uM after 48 hrs by sulforhodamine B assay; conditions: SF-268, 48 h, values are per cent of control
[7] = Growth inhibition of human RXF393 cells at 10 uM after 48 hrs by sulforhodamine B assay; conditions: RXF 393, 48 h, values are per cent of control
[8] = Growth inhibition of human Hs 578T cells at 10 uM after 48 hrs by sulforhodamine B assay; conditions: values are per cent of control
NCI-H23 = experiment: Growth inhibition of human NCI-H23 cells at 10 uM after 48 hrs by sulforhodamine B assay; conditions: NCI-H23, 48 h, values are per cent of control
[9] = Growth inhibition of human OVCAR4 cells at 10 uM after 48 hrs by sulforhodamine B assay; conditions: OVCAR-4, 48 h, values are per cent of control
[10] = Growth inhibition of human TK10 cells at 10 uM after 48 hrs by sulforhodamine B assay; conditions: TK-10, 48 h, values are per cent of control
SR = experiment: Growth inhibition of human SR cells at 10 uM after 48 hrs by sulforhodamine B assay; conditions: values are per cent of control
[11] = Growth inhibition of human HOP62 cells at 10 uM after 48 hrs by sulforhodamine B assay; conditions: HOP-62, 48 h, values are per cent of control
NCI-H226 = experiment: Growth inhibition of human NCI-H226 cells at 10 uM after 48 hrs by sulforhodamine B assay; conditions: NCI-H226, 48 h, values are per cent of control
[12] = Growth inhibition of human IGROV1 cells at 10 uM after 48 hrs by sulforhodamine B assay; conditions: IGROV-1, 48 h, values are per cent of control
NCI-H522 = experiment: Growth inhibition of human NCI-H522 cells at 10 uM after 48 hrs by sulforhodamine B assay; conditions: NCI-H522, 48 h, values are per cent of control
[13] = Growth inhibition of human SF295 cells at 10 uM after 48 hrs by sulforhodamine B assay; conditions: SF-295, 48 h, values are per cent of control
[14] = Growth inhibition of human SW620 cells at 10 uM after 48 hrs by sulforhodamine B assay; conditions: SW-620, 48 h, values are per cent of control
[15] = Growth inhibition of human HCT15 cells at 10 uM after 48 hrs by sulforhodamine B assay; conditions: HCT-15, 48 h, values are per cent of control
[16] = Growth inhibition of human HCT116 cells at 10 uM after 48 hrs by sulforhodamine B assay; conditions: HCT-116, 48 h, values are per cent of control
[17] = Growth inhibition of human UACC62 cells at 10 uM after 48 hrs by sulforhodamine B assay; conditions: UACC-62, 48 h, values are per cent of control
SK-MEL-28 = experiment: Growth inhibition of human SK-MEL-28 cells at 10 uM after 48 hrs by sulforhodamine B assay; conditions: SK-MEL-28, 48 h, values are per cent of control
[18] = Growth inhibition of human COLO205 cells at 10 uM after 48 hrs by sulforhodamine B assay; conditions: COLO 205, 48 h, values are per cent of control
SK-MEL-2 = experiment: Growth inhibition of human SK-MEL-2 cells at 10 uM after 48 hrs by sulforhodamine B assay; conditions: SK-MEL-2, 48 h, values are per cent of control
NCI-H322M = experiment: Growth inhibition of human NCI-H322M cells at 10 uM after 48 hrs by sulforhodamine B assay; conditions: values are per cent of control
[19] = Growth inhibition of human LOXIMVI cells at 10 uM after 48 hrs by sulforhodamine B assay; conditions: LOX IMVI, values are per cent of control
SK-MEL-5 = experiment: Growth inhibition of human SK-MEL-5 cells at 10 uM after 48 hrs by sulforhodamine B assay; conditions: SK-MEL-5, 48 h, values are per cent of control
SN12C = experiment: Growth inhibition of human SN12C cells at 10 uM after 48 hrs by sulforhodamine B assay; conditions: values are per cent of control
[20] = Growth inhibition of human OVCAR8 cells at 10 uM after 48 hrs by sulforhodamine B assay; conditions: OVCAR-8, 48 h, values are per cent of control
[21] = Growth inhibition of human HCC2998 cells at 10 uM after 48 hrs by sulforhodamine B assay; conditions: HCC 2998, 48 h, values are per cent of control
U-251 = experiment: Growth inhibition of human U251 cells at 10 uM after 48 hrs by sulforhodamine B assay; conditions: U-251, 48 h, values are per cent of control
[22] = Growth inhibition of human BT549 cells at 10 uM after 48 hrs by sulforhodamine B assay; conditions: BT-549, 48 h, values are per cent of control

SMILES	growth, % of control at 10 µM [1] [%]	growth, % of control at 10 µM (MDA-MB-468) [%]	growth, % of control at 10 µM (T47D) [%]	growth, % of control at 10 µM (ACHN) [%]	growth, % of control at 10 µM (M14) [%]	growth, % of control at 10 µM (786-0) [%]	growth, % of control at 10 µM (NCI-H460) [%]	growth, % of control at 10 µM [2] [%]	growth, % of control at 10 µM [3] [%]	growth, % of control at 10 µM [4] [%]	growth, % of control at 10 µM (A549) [%]	growth, % of control at 10 µM (MDA-MB-435) [%]	growth, % of control at 10 µM [5] [%]	growth, % of control at 10 µM [6] [%]	growth, % of control at 10 µM [7] [%]	growth, % of control at 10 µM [8] [%]	growth, % of control at 10 µM (NCI-H23) [%]	growth, % of control at 10 µM [9] [%]	growth, % of control at 10 µM [10] [%]	growth, % of control at 10 µM (SR) [%]	further results
N#C/C(=C\c1ccsc1)c1ccc2c(c1)OCO2	105	105	90.7	112	105	96.7	104	113	98.5	97.3	92.1	107	101	102	101	119	106	91	104	86.5	growth, % of control at 10 µM [11]: 94.5%; growth, % of control at 10 µM (NCI-H226): 101%; growth, % of control at 10 µM [12]: 96.4%; growth, % of control at 10 µM (NCI-H522): 95.4%; growth, % of control at 10 µM [13]: 101%; growth, % of control at 10 µM [14]: 109%; growth, % of control at 10 µM [15]: 107%; growth, % of control at 10 µM [16]: 102%; growth, % of control at 10 µM [17]: 106%; growth, % of control at 10 µM (SK-MEL-28): 113%; growth, % of control at 10 µM [18]: 101%; growth, % of control at 10 µM (SK-MEL-2): 106%; growth, % of control at 10 µM (NCI-H322M): 90.6%; growth, % of control at 10 µM [19]: 112%; growth, % of control at 10 µM (SK-MEL-5): 102%; growth, % of control at 10 µM (SN12C): 104%; growth, % of control at 10 µM [20]: 90.8%; growth, % of control at 10 µM [21]: 106%; growth, % of control at 10 µM (U-251): 93.7%; growth, % of control at 10 µM [22]: 96.5%
COc1cc(/C=C(\C#N)c2ccc3c(c2)OCO3)cc(OC)c1OC	92.4	99.6	70.7	96	95	96.5	107	93.9	107	86.6	93.6	74.7	93.8	94.4	100	100	94.5	89.2	98.1	83.5	growth, % of control at 10 µM [11]: 92.2%; growth, % of control at 10 µM (NCI-H226): 101%; growth, % of control at 10 µM [12]: 95.3%; growth, % of control at 10 µM (NCI-H522): 85.8%; growth, % of control at 10 µM [13]: 96.1%; growth, % of control at 10 µM [14]: 98.9%; growth, % of control at 10 µM [15]: 85.7%; growth, % of control at 10 µM [16]: 99.4%; growth, % of control at 10 µM [17]: 87.6%; growth, % of control at 10 µM (SK-MEL-28): 97.6%; growth, % of control at 10 µM [18]: 104%; growth, % of control at 10 µM (SK-MEL-2): 90.2%; growth, % of control at 10 µM (NCI-H322M): 104%; growth, % of control at 10 µM [19]: 109%; growth, % of control at 10 µM (SK-MEL-5): 92.2%; growth, % of control at 10 µM (SN12C): 95.4%; growth, % of control at 10 µM [20]: 96.3%; growth, % of control at 10 µM [21]: 91.3%; growth, % of control at 10 µM (U-251): 96.6%; growth, % of control at 10 µM [22]: 82.1%
COc1ccc(/C(C#N)=C/c2ccc3c(c2)OCO3)cc1	83.7	48.6	70	95.3	10.4	95.4	64.3	75.3	95	78.2	71.2	77.9	49.4	92	91.4	92.4	96.1	76.4	85.7	39.3	growth, % of control at 10 µM [11]: 86.6%; growth, % of control at 10 µM (NCI-H226): 86.6%; growth, % of control at 10 µM [12]: 84.6%; growth, % of control at 10 µM (NCI-H522): 90.5%; growth, % of control at 10 µM [13]: 80.8%; growth, % of control at 10 µM [14]: 84.9%; growth, % of control at 10 µM [15]: 59%; growth, % of control at 10 µM [16]: 64.9%; growth, % of control at 10 µM [17]: 69.2%; growth, % of control at 10 µM (SK-MEL-28): 81.4%; growth, % of control at 10 µM [18]: 76.2%; growth, % of control at 10 µM (SK-MEL-2): 90.1%; growth, % of control at 10 µM (NCI-H322M): 94.7%; growth, % of control at 10 µM [19]: 102%; growth, % of control at 10 µM (SK-MEL-5): 91.4%; growth, % of control at 10 µM (SN12C): 84.3%; growth, % of control at 10 µM [20]: 94.7%; growth, % of control at 10 µM [21]: 80%; growth, % of control at 10 µM (U-251): 80.9%; growth, % of control at 10 µM [22]: 74.7%
COc1ccc(/C=C(\C#N)c2ccc3c(c2)OCO3)c(OC)c1	19	8.3	43.5	59.1	16.4	52.1	36	20.3	63.9	40	36.4	-28.6	55.6	53.1	40.3	43.8	59.1	73.7	49.7	15.5	growth, % of control at 10 µM [11]: 54%; growth, % of control at 10 µM (NCI-H226): 73.8%; growth, % of control at 10 µM [12]: 45.1%; growth, % of control at 10 µM (NCI-H522): 43.3%; growth, % of control at 10 µM [13]: 27.1%; growth, % of control at 10 µM [14]: 31.9%; growth, % of control at 10 µM [15]: 24.4%; growth, % of control at 10 µM [16]: 19.3%; growth, % of control at 10 µM [17]: 39.7%; growth, % of control at 10 µM (SK-MEL-28): 50.2%; growth, % of control at 10 µM [18]: 25.4%; growth, % of control at 10 µM (SK-MEL-2): 2.7%; growth, % of control at 10 µM (NCI-H322M): 67.6%; growth, % of control at 10 µM [19]: 41%; growth, % of control at 10 µM (SK-MEL-5): 31.7%; growth, % of control at 10 µM (SN12C): 53.3%; growth, % of control at 10 µM [20]: 63.1%; growth, % of control at 10 µM [21]: 60.5%; growth, % of control at 10 µM (U-251): 29.2%; growth, % of control at 10 µM [22]: 35.3%
